Laboratory results published in patent US11591315B2, “Substituted pyrazole-pyrimidines, variants thereof, and uses therefore” (Afferent Pharmaceuticals, Inc., priority 2016, dated 2023).

Tests used:
[1] = molecular target: T1, human P2X2/3 channels (Homo sapiens, UniProt P56373+Q9UBL9); assay: FlexStation calcium fluorescence assay, 1321N1 cells stably transfected with human P2X2 and P2X3 (heteromeric P2X2/3 channels); format: cell-based; conditions: 1321N1-hP2X2/3 cells, Fluo-4 dye, agonist ATP, 20 minutes incubation; read-out: Average pIC50 P2X2/3 (converted)
T1 construct: expressed in transfected cells; host or cells: 1321N1 human astrocytoma cells (1321N1-hP2X2/3)
T1 sequence (P56373 1-397): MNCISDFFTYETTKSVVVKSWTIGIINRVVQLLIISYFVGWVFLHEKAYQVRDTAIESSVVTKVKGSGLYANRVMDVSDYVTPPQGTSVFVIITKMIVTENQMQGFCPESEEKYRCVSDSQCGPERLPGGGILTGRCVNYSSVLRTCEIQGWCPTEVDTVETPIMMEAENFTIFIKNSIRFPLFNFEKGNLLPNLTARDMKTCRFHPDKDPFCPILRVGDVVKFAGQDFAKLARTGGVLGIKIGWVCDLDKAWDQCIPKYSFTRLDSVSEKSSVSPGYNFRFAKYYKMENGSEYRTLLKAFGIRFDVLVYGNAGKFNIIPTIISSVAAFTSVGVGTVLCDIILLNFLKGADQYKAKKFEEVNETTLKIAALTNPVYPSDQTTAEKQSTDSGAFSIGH
T1 sequence (Q9UBL9 1-471): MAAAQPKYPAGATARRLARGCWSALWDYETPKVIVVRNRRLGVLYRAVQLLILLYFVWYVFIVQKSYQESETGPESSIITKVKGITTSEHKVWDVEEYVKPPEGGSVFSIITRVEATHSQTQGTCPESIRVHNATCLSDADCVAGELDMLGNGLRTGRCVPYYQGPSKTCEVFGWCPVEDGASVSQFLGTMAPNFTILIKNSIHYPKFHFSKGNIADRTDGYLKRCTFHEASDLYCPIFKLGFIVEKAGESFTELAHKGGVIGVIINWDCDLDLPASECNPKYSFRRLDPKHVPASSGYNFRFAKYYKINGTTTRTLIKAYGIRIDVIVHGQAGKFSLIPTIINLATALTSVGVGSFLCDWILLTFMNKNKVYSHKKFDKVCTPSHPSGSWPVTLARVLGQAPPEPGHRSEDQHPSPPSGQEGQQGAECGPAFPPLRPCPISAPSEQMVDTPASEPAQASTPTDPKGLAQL
Procedure: (§1) 1321N1 human astrocytoma and HEK293 human embryonic kidney cells were stably transfected with human P2X2 and P2X3 receptor subunits to form heteromeric P2X2/3 channels and passaged in flasks. Additionally, HEK293 cells were stably transfected with human P2X3 receptor subunits to form homomeric P2X3 channels.
(§2) Approximately 24 hours before the FlexStation calcium fluorescence experiment, cells were released from their flasks, centrifuged and re-suspended in nutrient medium. The cells were aliquoted into black-wall, clear-bottom 96 well plates at a density of 25,000 cells per well and incubated overnight in a humidified, CO2-enriched (5%) atmosphere at 37° C. […]
(§3) After 20 minutes incubation at room temperature and protected from light, the assay plates were loaded into the FlexStation microplate reader and baseline fluorescence measured with an excitation wavelength of 485 nm and emission wavelength readings centered at 525 nm (515 nm cut off).
(§4) The agonist was dispensed by the FlexStation during fluorescence measurement to construct agonist activation and antagonist inhibition curves. […] Peak fluorescence was measured and curves generated using a four parameter nonlinear regression equation. […]

[2] = molecular target: T2, human P2X3 receptor (Homo sapiens, UniProt P56373); assay: FlexStation calcium fluorescence assay, HEK293 cells stably transfected with human P2X3 (homomeric P2X3 channels); format: cell-based; conditions: HEK-hP2X3 cells, Calcium 6 dye, agonist 1 μM α,β-meATP, 20 minutes incubation; read-out: Average pIC50 P2X3 (converted)
T2 construct: expressed in transfected cells; host or cells: HEK293 human embryonic kidney cells (HEK-hP2X3)
T2 sequence (P56373 1-397): T1 sequence (P56373 1-397)
Procedure: as §1, §2, §3, §4

IC50 [1]	IC50 [2]	SMILES
> 10000 nM	6920 nM	CCOc1cc(Oc2cnc(N)nc2N)n(C(C)C)n1 [Compound 1]
1950 nM	288 nM	COc1cc(Oc2cnc(N)nc2N)n(C(C)C)n1 [Compound 2]
